# According to patent US9775898B2, “Vaccine composition comprising an immunogenic protein and combination adjuvants for use in eliciting antigen-specific T-cell responses” (TheVax Genetics Vaccine Co., Ltd., priority 2015, dated 2017):
# pKd: −log10 of the molar value.
# Experiments:
# [1] = system: E7 antigen specific immune response; test: Immunogenicity analysis of different immunogenic composition (humoral and cell mediated); type: in vivo; conditions: mice
# [2] = target: CD91 (Homo sapiens, UniProt Q07954); conditions: read-out: binding affinity to CD91 (Kd); cited from earlier work
# Sequence of CD91 (Q07954 20-4544, species assumed): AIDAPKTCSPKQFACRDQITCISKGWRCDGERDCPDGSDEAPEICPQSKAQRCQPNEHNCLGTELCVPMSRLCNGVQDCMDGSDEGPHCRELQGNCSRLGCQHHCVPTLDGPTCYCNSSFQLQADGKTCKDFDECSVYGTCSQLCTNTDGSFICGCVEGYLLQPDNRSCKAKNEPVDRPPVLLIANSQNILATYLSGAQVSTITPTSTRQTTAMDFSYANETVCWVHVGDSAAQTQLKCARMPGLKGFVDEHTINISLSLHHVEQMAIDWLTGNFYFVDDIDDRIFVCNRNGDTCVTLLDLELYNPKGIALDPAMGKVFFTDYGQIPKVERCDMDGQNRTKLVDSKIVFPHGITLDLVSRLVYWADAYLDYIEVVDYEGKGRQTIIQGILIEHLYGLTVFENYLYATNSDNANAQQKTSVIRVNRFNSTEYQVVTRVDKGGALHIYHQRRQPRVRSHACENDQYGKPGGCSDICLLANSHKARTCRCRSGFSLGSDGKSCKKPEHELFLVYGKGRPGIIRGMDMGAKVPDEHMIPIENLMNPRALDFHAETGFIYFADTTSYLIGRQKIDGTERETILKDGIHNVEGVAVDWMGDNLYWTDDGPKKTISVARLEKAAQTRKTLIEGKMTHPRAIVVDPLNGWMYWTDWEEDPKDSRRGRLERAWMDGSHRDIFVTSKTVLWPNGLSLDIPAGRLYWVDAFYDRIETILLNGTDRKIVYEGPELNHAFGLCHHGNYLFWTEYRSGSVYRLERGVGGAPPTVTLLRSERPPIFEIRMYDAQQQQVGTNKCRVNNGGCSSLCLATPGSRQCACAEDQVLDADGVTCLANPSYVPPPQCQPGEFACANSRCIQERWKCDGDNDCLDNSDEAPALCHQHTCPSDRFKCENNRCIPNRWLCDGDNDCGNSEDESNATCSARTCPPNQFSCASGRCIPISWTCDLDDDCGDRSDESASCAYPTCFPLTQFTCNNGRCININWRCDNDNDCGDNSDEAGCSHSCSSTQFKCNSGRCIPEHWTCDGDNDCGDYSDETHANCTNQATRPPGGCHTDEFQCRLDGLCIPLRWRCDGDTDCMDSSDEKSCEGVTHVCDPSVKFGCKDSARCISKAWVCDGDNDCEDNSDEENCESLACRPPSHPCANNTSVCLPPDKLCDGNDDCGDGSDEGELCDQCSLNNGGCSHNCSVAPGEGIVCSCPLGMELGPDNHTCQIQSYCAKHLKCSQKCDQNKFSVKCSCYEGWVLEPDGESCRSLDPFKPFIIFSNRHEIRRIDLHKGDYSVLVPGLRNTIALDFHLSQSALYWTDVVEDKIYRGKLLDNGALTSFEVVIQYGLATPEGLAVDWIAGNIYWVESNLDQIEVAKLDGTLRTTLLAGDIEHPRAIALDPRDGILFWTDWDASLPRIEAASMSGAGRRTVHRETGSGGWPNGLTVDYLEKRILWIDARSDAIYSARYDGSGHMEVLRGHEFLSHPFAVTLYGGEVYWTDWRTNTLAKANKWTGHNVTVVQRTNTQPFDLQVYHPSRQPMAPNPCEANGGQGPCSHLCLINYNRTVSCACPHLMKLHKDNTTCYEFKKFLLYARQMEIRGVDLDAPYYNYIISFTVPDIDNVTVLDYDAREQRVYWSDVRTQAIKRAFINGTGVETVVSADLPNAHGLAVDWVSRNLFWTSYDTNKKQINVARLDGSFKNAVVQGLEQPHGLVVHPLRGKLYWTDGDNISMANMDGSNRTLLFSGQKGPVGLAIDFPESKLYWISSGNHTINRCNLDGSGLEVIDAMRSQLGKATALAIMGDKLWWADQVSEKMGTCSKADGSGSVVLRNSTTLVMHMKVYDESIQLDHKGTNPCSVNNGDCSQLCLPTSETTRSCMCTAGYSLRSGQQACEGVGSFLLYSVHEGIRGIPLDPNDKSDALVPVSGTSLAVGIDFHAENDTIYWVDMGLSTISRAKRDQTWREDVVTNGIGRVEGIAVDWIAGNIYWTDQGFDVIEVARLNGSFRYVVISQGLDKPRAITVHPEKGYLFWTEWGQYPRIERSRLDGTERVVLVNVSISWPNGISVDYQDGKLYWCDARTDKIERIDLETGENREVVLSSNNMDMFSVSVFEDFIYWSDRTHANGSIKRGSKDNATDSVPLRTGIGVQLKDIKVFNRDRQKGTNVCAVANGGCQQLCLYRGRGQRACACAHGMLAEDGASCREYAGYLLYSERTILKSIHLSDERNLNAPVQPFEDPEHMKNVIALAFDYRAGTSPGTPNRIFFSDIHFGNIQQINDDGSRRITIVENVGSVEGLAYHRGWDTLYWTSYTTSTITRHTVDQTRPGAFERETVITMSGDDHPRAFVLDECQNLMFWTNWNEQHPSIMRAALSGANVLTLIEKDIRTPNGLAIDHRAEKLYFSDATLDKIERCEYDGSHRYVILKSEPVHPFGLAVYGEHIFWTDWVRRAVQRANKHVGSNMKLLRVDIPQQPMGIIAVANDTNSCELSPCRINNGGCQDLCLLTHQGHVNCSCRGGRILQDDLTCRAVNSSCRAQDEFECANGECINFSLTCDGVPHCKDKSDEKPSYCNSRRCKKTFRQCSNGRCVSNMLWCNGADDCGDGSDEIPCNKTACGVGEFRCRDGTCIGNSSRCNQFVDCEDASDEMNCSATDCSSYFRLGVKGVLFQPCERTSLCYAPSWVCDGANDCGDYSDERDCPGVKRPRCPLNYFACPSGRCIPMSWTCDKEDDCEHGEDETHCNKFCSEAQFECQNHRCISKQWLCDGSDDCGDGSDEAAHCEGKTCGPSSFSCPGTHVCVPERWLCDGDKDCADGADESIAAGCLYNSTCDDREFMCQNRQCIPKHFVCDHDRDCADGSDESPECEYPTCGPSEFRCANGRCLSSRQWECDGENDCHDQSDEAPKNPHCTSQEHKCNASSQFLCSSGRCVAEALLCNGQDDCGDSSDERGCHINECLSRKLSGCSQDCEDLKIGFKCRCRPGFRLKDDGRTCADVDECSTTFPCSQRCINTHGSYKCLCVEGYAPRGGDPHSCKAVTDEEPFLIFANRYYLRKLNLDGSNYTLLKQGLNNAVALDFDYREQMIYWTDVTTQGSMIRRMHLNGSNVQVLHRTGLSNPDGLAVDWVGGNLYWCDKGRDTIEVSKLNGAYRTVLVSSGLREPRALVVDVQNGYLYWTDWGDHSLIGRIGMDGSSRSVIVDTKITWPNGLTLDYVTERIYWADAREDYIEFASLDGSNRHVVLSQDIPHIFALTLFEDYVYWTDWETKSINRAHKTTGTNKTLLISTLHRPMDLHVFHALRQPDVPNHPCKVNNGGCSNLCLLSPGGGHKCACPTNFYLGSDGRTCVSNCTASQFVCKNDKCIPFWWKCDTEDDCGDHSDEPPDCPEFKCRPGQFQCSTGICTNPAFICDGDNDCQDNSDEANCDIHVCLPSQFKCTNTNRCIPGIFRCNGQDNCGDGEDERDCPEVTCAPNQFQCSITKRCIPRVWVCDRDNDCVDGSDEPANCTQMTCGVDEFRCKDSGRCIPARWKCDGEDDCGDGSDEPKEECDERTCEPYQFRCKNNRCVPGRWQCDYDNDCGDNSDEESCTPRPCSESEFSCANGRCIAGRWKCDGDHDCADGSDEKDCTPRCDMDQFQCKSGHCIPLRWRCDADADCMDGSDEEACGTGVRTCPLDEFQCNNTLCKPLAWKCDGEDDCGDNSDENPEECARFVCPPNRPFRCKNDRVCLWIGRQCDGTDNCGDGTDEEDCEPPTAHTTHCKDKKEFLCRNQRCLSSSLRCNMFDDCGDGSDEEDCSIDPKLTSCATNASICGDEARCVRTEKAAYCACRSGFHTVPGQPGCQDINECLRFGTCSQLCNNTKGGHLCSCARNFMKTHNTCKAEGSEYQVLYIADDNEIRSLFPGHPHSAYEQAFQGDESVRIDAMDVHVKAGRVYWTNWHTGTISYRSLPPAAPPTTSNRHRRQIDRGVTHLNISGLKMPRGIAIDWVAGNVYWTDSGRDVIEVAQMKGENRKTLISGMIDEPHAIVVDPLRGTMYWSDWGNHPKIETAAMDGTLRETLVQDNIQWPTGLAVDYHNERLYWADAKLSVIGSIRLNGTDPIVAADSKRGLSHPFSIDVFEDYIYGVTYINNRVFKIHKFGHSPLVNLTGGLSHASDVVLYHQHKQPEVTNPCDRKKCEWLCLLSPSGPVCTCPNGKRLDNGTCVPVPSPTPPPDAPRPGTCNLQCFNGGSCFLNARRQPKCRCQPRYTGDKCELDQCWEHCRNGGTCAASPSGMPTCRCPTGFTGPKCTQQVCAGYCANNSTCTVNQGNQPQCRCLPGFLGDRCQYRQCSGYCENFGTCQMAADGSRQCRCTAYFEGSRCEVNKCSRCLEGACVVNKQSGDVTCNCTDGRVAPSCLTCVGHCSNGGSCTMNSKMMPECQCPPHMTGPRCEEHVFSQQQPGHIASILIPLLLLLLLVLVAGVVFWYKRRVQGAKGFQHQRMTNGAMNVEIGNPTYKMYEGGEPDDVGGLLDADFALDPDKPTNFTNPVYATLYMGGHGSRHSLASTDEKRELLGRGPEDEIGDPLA
substance,measurement,setting,value
QS-21 [reference compound],adjuvant comparison for stimulating both humoral and cell mediated immune responses,"[1]; with E7 immunogenic proteins, compared with alum",better adjuvants
"E7 antigen: HPV16 E7 protein (full length), SEQ ID NO: 21, antigen itself only",E7 antigen specific cell mediated immune response,[1]; combined with GPI-0100 or QS-21,weak to strong
RAP1: 39 kDa ER resident protein and molecular chaperone for LDL receptor-related protein,pKd,[2],~8.52
